Tests used:
Type in all cases: in vivo
[1] = tested on: velvetleaf (Abutilon theophrasti); experiment: Test G Post-Emergence Protocol; settings: Abutilon theophrasti, post-emergence, 312 h, read-out: Velvetleaf damage rating; for pest or weed control at 15.625 g/ha: 15.625 g ai/ha, evaluated after 13 days (100=total damage to plant; 0=no damage to plant); for pest or weed control at 62.5 g/ha: 62.5 g ai/ha; for pest or weed control at 62.5 g/ha / pest or weed control at 250 g/ha: evaluated after 13 days, 100=total damage to plant, 0=no damage to plant; for pest or weed control at 250 g/ha: 250 g ai/ha
In short: (§1)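 Damage was rated 13 days after treatment from 0 (none) to 100 (plant killed). Compound was applied as a spray at 15.625, 62.5 or 250 g/ha in 50:50 acetone/water containing 0.5% Tween 20, onto 8-day-old potted plants kept in a glasshouse (24/16 °C, 14 h light, 65% humidity).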

[2] = tested on: barnyardgrass (Echinochloa crus-galli); experiment: Test G Post-Emergence Protocol; settings: Echinochloa crus-galli, post-emergence, 312 h, read-out: Barnyardgrass damage rating; for pest or weed control at 15.625 g/ha: 15.625 g ai/ha, evaluated after 13 days (100=total damage to plant; 0=no damage to plant); for pest or weed control at 62.5 g/ha: 62.5 g ai/ha; for pest or weed control at 62.5 g/ha / pest or weed control at 250 g/ha: evaluated after 13 days, 100=total damage to plant, 0=no damage to plant; for pest or weed control at 250 g/ha: 250 g ai/ha
In short: as §1

corn (Zea mays) [3] = experiment: Test G Post-Emergence Protocol; settings: Zea mays, post-emergence, 312 h, read-out: Corn damage rating; for plant injury at 15.625 g/ha: 15.625 g ai/ha, evaluated after 13 days (100=total damage to plant; 0=no damage to plant); for plant injury at 62.5 g/ha: 62.5 g ai/ha; for plant injury at 62.5 g/ha / plant injury at 250 g/ha: evaluated after 13 days, 100=total damage to plant, 0=no damage to plant; for plant injury at 250 g/ha: 250 g ai/ha
In short: as §1

[4] = tested on: giant foxtail (Setaria faberi); experiment: Test G Post-Emergence Protocol; settings: Setaria faberi, post-emergence, 312 h, read-out: Foxtail, Giant damage rating; for pest or weed control at 15.625 g/ha: 15.625 g ai/ha, evaluated after 13 days (100=total damage to plant; 0=no damage to plant); for pest or weed control at 62.5 g/ha: 62.5 g ai/ha
In short: as §1

[5] = tested on: ivy-leaved morning glory (Ipomoea hederacea); experiment: Test G Post-Emergence Protocol; settings: Ipomoea, post-emergence, 312 h, read-out: Morningglory, Ivy-leaved damage rating; for pest or weed control at 15.625 g/ha: 15.625 g ai/ha, evaluated after 13 days (100=total damage to plant; 0=no damage to plant); for pest or weed control at 62.5 g/ha: 62.5 g ai/ha; for pest or weed control at 62.5 g/ha / pest or weed control at 250 g/ha: evaluated after 13 days, 100=total damage to plant, 0=no damage to plant; for pest or weed control at 250 g/ha: 250 g ai/ha
In short: as §1

[6] = tested on: redroot pigweed (Amaranthus retroflexus); experiment: Test G Post-Emergence Protocol; settings: Amaranthus retroflexus, post-emergence, 312 h, read-out: Pigweed, Redroot damage rating; for pest or weed control at 15.625 g/ha: 15.625 g ai/ha, evaluated after 13 days (100=total damage to plant; 0=no damage to plant); for pest or weed control at 62.5 g/ha: 62.5 g ai/ha; for pest or weed control at 62.5 g/ha / pest or weed control at 250 g/ha: evaluated after 13 days, 100=total damage to plant, 0=no damage to plant; for pest or weed control at 250 g/ha: 250 g ai/ha
In short: as §1

[7] = tested on: velvetleaf (Abutilon theophrasti); experiment: Test G Pre-Emergence Protocol; settings: Abutilon theophrasti, pre-emergence, 312 h, evaluated after 13 days; for pest or weed control at 15.625 g/ha: 15.625 g ai/ha; for pest or weed control at 15.625 g/ha / pest or weed control at 250 g/ha: read-out: Velvetleaf damage rating (100=total damage to plant; 0=no damage to plant); for pest or weed control at 62.5 g/ha: 62.5 g ai/ha, 100=total damage to plant, 0=no damage to plant, read-out: Velvetleaf damage rating; for pest or weed control at 250 g/ha: 250 g ai/ha
In short: (§2)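 Pre-emergence spray, 15.625/62.5/250 g/ha, vehicle acetone:water 50:50 + 0.5% Tween 20, applied 1 d after sowing. Glasshouse 24/16° C, 14 h light, 65% RH, watered twice daily. Visual damage rating at 13 d, 0–100 scale.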

[8] = tested on: barnyardgrass (Echinochloa crus-galli); experiment: Test G Pre-Emergence Protocol; settings: Echinochloa crus-galli, pre-emergence, 312 h, evaluated after 13 days; for pest or weed control at 15.625 g/ha: 15.625 g ai/ha; for pest or weed control at 15.625 g/ha / pest or weed control at 250 g/ha: read-out: Barnyardgrass damage rating (100=total damage to plant; 0=no damage to plant); for pest or weed control at 62.5 g/ha: 62.5 g ai/ha, 100=total damage to plant, 0=no damage to plant, read-out: Barnyardgrass damage rating; for pest or weed control at 250 g/ha: 250 g ai/ha
In short: as §2

corn (Zea mays) [9] = experiment: Test G Pre-Emergence Protocol; settings: Zea mays, pre-emergence, 312 h, evaluated after 13 days; for plant injury at 15.625 g/ha: 15.625 g ai/ha; for plant injury at 15.625 g/ha / plant injury at 250 g/ha: read-out: Corn damage rating (100=total damage to plant; 0=no damage to plant); for plant injury at 62.5 g/ha: 62.5 g ai/ha, 100=total damage to plant, 0=no damage to plant, read-out: Corn damage rating; for plant injury at 250 g/ha: 250 g ai/ha
In short: as §2

[10] = tested on: giant foxtail (Setaria faberi); experiment: Test G Pre-Emergence Protocol; settings: Setaria faberi, pre-emergence, 312 h, evaluated after 13 days; for pest or weed control at 15.625 g/ha: 15.625 g ai/ha; for pest or weed control at 15.625 g/ha / pest or weed control at 250 g/ha: read-out: Foxtail, Giant damage rating (100=total damage to plant; 0=no damage to plant); for pest or weed control at 62.5 g/ha: 62.5 g ai/ha, 100=total damage to plant, 0=no damage to plant, read-out: Foxtail, Giant damage rating; for pest or weed control at 250 g/ha: 250 g ai/ha
In short: as §2

[11] = tested on: ivy-leaved morning glory (Ipomoea hederacea); experiment: Test G Pre-Emergence Protocol; settings: Ipomoea, pre-emergence, 312 h, evaluated after 13 days; for pest or weed control at 15.625 g/ha: 15.625 g ai/ha; for pest or weed control at 15.625 g/ha / pest or weed control at 250 g/ha: read-out: Morningglory, Ivy-leaved damage rating (100=total damage to plant; 0=no damage to plant); for pest or weed control at 62.5 g/ha: 62.5 g ai/ha, 100=total damage to plant, 0=no damage to plant, read-out: Morningglory, Ivy-leaved damage rating; for pest or weed control at 250 g/ha: 250 g ai/ha
In short: as §2

[12] = tested on: redroot pigweed (Amaranthus retroflexus); experiment: Test G Pre-Emergence Protocol; settings: Amaranthus retroflexus, pre-emergence, 312 h, evaluated after 13 days; for pest or weed control at 15.625 g/ha: 15.625 g ai/ha; for pest or weed control at 15.625 g/ha / pest or weed control at 250 g/ha: read-out: Pigweed, Redroot damage rating (100=total damage to plant; 0=no damage to plant); for pest or weed control at 62.5 g/ha: 62.5 g ai/ha, 100=total damage to plant, 0=no damage to plant, read-out: Pigweed, Redroot damage rating; for pest or weed control at 250 g/ha: 250 g ai/ha
In short: as §2

[13] = evaluated after 13 days, 100=total damage to plant, 0=no damage to plant

Compound: CN1C[C@H](c2ccc(C(F)(F)F)cc2)[C@@H](C(=O)Nc2ccc3ncccc3n2)C1=O (racemic) [Compound 1833]
- pest or weed control at 15.625 g/ha [1]: 0%
- pest or weed control at 62.5 g/ha [1]: 0%
- pest or weed control at 250 g/ha [1]: 0%
- pest or weed control at 15.625 g/ha [2]: 0%
- pest or weed control at 62.5 g/ha [2]: 0%
- pest or weed control at 250 g/ha [2]: 0%
- plant injury at 15.625 g/ha (corn (Zea mays) [3]): 0%
- plant injury at 62.5 g/ha (corn (Zea mays) [3]): 0%
- plant injury at 250 g/ha (corn (Zea mays) [3]): 0%
- pest or weed control at 15.625 g/ha [4]: 0%
- pest or weed control at 62.5 g/ha [4, 13]: 0%
- pest or weed control at 250 g/ha ([4]; 250 g ai/ha, evaluated after 13 days, 100=total damage to plant, 0=no damage to plant): 0%
- pest or weed control at 15.625 g/ha [5]: 0%
- pest or weed control at 62.5 g/ha [5]: 0%
- pest or weed control at 250 g/ha [5]: 0%
- pest or weed control at 15.625 g/ha [6]: 0%
- pest or weed control at 62.5 g/ha [6]: 0%
- pest or weed control at 250 g/ha [6]: 0%
- pest or weed control at 15.625 g/ha [7]: 0%
- pest or weed control at 62.5 g/ha [7]: 0%
- pest or weed control at 250 g/ha [7]: 0%
- pest or weed control at 15.625 g/ha [8]: 0%
- pest or weed control at 62.5 g/ha [8]: 0%
- pest or weed control at 250 g/ha [8]: 0%
- plant injury at 15.625 g/ha (corn (Zea mays) [9]): 0%
- plant injury at 62.5 g/ha (corn (Zea mays) [9]): 0%
- plant injury at 250 g/ha (corn (Zea mays) [9]): 0%
- pest or weed control at 15.625 g/ha [10]: 0%
- pest or weed control at 62.5 g/ha [10]: 0%
- pest or weed control at 250 g/ha [10]: 0%
- pest or weed control at 15.625 g/ha [11]: 0%
- pest or weed control at 62.5 g/ha [11]: 0%
- pest or weed control at 250 g/ha [11]: 0%
- pest or weed control at 15.625 g/ha [12]: 0%
- pest or weed control at 62.5 g/ha [12]: 0%
- pest or weed control at 250 g/ha [12]: 0%

Compound: COc1ccc(C2CN(C)C(=O)C2C(=O)Nc2cccc(F)c2F)cc1C (centres unmarked) [Compound 1688]
- pest or weed control at 15.625 g/ha [1]: 0%
- pest or weed control at 62.5 g/ha [1]: 0%
- pest or weed control at 250 g/ha [1]: 10%
- pest or weed control at 15.625 g/ha [2]: 30%
- pest or weed control at 62.5 g/ha [2]: 70%
- pest or weed control at 250 g/ha [2]: 90%
- plant injury at 15.625 g/ha (corn (Zea mays) [3]): 0%
- plant injury at 62.5 g/ha (corn (Zea mays) [3]): 30%
- plant injury at 250 g/ha (corn (Zea mays) [3]): 60%
- pest or weed control at 15.625 g/ha [4]: 60%
- pest or weed control at 62.5 g/ha [4, 13]: 80%
- pest or weed control at 15.625 g/ha [5]: 0%
- pest or weed control at 62.5 g/ha [5]: 20%
- pest or weed control at 250 g/ha [5]: 60%
- pest or weed control at 15.625 g/ha [6]: 0%
- pest or weed control at 62.5 g/ha [6]: 0%
- pest or weed control at 250 g/ha [6]: 10%
- pest or weed control at 15.625 g/ha [7]: 10%
- pest or weed control at 62.5 g/ha [7]: 0%
- pest or weed control at 250 g/ha [7]: 50%
- pest or weed control at 15.625 g/ha [8]: 50%
- pest or weed control at 62.5 g/ha [8]: 70%
- pest or weed control at 250 g/ha [8]: 90%
- plant injury at 15.625 g/ha (corn (Zea mays) [9]): 0%
- plant injury at 62.5 g/ha (corn (Zea mays) [9]): 50%
- plant injury at 250 g/ha (corn (Zea mays) [9]): 70%
- pest or weed control at 15.625 g/ha [10]: 70%
- pest or weed control at 62.5 g/ha [10]: 80%
- pest or weed control at 250 g/ha [10]: 90%
- pest or weed control at 15.625 g/ha [11]: 0%
- pest or weed control at 62.5 g/ha [11]: 0%
- pest or weed control at 250 g/ha [11]: 10%
- pest or weed control at 15.625 g/ha [12]: 30%
- pest or weed control at 62.5 g/ha [12]: 20%
- pest or weed control at 250 g/ha [12]: 60%
